Where two headings read alike, the source gives them in different places.
Legend:
[1] = test system: STAM mouse model of Non-alcoholic Steatohepatitis (NASH-derived HCC); assay: STAM mouse model of NASH, week 18 (anti-HCC effects); details: for Mice that died before sacrifice (survival analysis): weeks 6-18
Method: Group 1—Vehicle: Eighteen NASH mice were orally administered vehicle at a volume of 10 mL/kg twice daily (9:00 and 19:00) from 6 weeks of age.

[2] = test system: APAP-induced acute liver injury; assay: Acetaminophen (APAP)-induced acute liver injury in mice; type: in vivo, C57BL/6J mice
Method: Methods: […] […] Liver injury and immune cell phenotypes were analyzed. For mechanistic studies, monocyte-derived macrophage subsets and resident macrophages (Kupffer cells) were sorted by FACS from injured livers and subjected to array-based Nanostring gene expression analysis. […] The human counterparts of both agents are currently tested in phase II trials for different indications (diabetic nephropathy or NASH, respectively).

[3] = test system: HIV-1; assay: Study 201: pharmacokinetic/pharmacodynamic Emax model; type: in vivo, human; details: for Emax: read-out: Percent of the maximum inhibitory effect at average Css (Emax model)
From the text: Drug response was characterized using the following maximum effect (Emax) model:
where E is effect, E0 is the baseline effect (fixed to 0), Imax is the maximum inhibition, C denotes the PK variable (AUC0-24, Cmax, or steady-state concentration [Css]), IC50 is the value of the PK variable which corresponds to 50% of the maximum inhibition and γ is the shape parameter which describes the degree of sigmoidicity.

[4] = target: CCR4 (Homo sapiens, UniProt P51679); assay: Inhibition of ligand binding to CCR4
[5] = target: T1, CCR2 (Homo sapiens, UniProt P41597); assay: MCP-1-induced CCR2 internalization / CCR2 receptor occupancy on monocytes (flow cytometry); type: cell-based
T1 construct: endogenous in cells; host or cells: monocytes within PBMCs from HIV+ and HIV- subjects
T1 sequence (P41597 1-360 isoform P41597-2): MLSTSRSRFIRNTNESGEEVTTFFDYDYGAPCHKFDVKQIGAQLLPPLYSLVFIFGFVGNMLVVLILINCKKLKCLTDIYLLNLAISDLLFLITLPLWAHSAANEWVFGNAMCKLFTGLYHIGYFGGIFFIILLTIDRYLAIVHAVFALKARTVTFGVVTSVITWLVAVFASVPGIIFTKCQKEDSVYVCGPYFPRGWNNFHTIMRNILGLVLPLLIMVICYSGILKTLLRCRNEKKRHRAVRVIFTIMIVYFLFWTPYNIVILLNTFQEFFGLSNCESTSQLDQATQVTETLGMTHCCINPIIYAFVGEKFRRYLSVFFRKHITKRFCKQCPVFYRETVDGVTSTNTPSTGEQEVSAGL
Method: The capacity of each drug to inhibit CCR5 or CCR2 internalization was evaluated. Cell-surface expression of CCR5 and CCR2 was assessed by flow cytometry, and fluorescence values were converted into molecules of equivalent soluble fluorescence (MESF).

[6] = test system: HIV-1 BaL; assay: Extracellular virus (viral RNA, p24) in culture fluids of PM-1 cells exposed to HIV-1 BaL; type: cell-based; details: 4 hrs post-infection, CVC 20 nM, MVC 50 nM
From the text: Cells. PM-1 cells that express CD4, CCR5, and CXCR4 were maintained in RPMI-1640 medium containing 10% fetal bovine serum (R10 medium) at 37C, 5% CO2. 293T cells used for transfection were maintained in DMEM at 10% FBS, L-glutamine, and antibiotics (D10 medium) at 37C, 5% CO2. Virus Stocks. HIV-1 BaL virus was produced by transfecting 293T cells with the plasmid pWT/BaL. Lipofectamine 2000 was used as a transfection agent. Culture supernatants were collected at 48 hrs post-transfection, filtered through a 0.45 μm pore filter, and treated with 50 units of benzonase per ml of virus stock for 20 minutes at 37C to remove contaminating plasmid DNA. Virus stocks were frozen at −80C to halt benzonase activity. Benzonase-treated virus stocks were propagated in cord blood mononuclear cells (CBMCs). CBMCs were stimulated for 72 h with phytohemagluttinin (PHA-M) in R10 medium prior to infection with HIV-1 BaL. The viral amplification culture was subsequently grown in R10 supplemented with interleukin 2 (IL-2) and incubated at 37C, 5% CO2.
Both drugs were incubated with PM-1 cells for 1 hr at 37 C prior to the addition of virus. 500 ng of p24 antigen of HIV-1 BaL were incubated per 5×10^5 cells in 1 ml of R10 media. Virus only controls, described as “no cell” in the text, were used to measure viral decay. Viral adsorption was measured in the no-drug controls, whereby 500 ng of p24 Ag of HIV-1 Bal were added per 5×10^5 PM-1 cells that were pre-incubated at 37 C for 1 hr in the absence of drug treatment. Each drug treatment and control was performed in duplicate. Viral RNA was extracted from 140 μl of supernatant fluid using the QIAamp Viral RNA mini kit according to manufacturer's instructions. Samples were stored at −80 C until analysis. Supernatant viral loads were measured using quantitative real-time reverse transcription PCR (qRT-PCR) with the primers US1SSF (5′-[…]-3′), US1SSR (5′-[…]-3′) and US1SS probe (5′-(FAM) […]) and the Invitrogen qRT-PCR Supermix Kit. Cycling parameters were: 50° C. for 15 minutes, 95° C. for 10 minutes, followed by 50 cycles of 95° C. for 15 seconds, and 60° C. for 1 minute. All values are the result of replicate testing over 2 independent experiments. RNA copy number was quantified by use of 10-fold serial dilutions of pBaL/wt to generate standard curves for each assay and calibrated against samples with known copy numbers from previous studies.

[7] = CVC-high 100 mg/kg/day, week 18
[8] = CVC-high 100 mg/kg/day, week 18, listed as Cenicriviroc
[9] = CVC-low 20 mg/kg/day, week 18, listed as Cenicriviroc

CCR4, sequence (P51679 whole entry): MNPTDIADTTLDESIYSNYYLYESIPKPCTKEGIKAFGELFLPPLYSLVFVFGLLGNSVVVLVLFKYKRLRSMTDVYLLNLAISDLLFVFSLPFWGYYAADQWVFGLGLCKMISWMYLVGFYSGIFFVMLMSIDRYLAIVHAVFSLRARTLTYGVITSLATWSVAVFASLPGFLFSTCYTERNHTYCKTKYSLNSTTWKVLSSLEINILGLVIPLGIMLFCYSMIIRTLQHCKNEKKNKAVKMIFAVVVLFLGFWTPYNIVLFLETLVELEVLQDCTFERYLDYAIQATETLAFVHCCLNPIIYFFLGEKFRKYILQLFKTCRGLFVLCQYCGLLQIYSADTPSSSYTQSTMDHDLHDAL

Structure (SMILES): CCCCOCCOc1ccc(-c2ccc3c(c2)/C=C(/C(=O)Nc2ccc([S@@+]([O-])Cc4cncn4CCC)cc2)CCCN3CC(C)C)cc1 [CVC, (S)-8-[4-(2-Butoxyethoxy)phenyl]-1-isobutyl-N-(4-{[(1-propyl-1H-imidazol-5-yl)methyl]sulfinyl}phenyl)-1,2,3,4-tetrahydro-1-benzazocine-5-carboxamide]
- Effect on NASH-derived HCC ([1]; CVC treatment groups, week 18): not observed
- Body weight [1, 7]: 20.8 ± 2.7 g
- CD31-positive area [1, 7]: 3.68±1.37%
- Liver weight [1, 7]: 1817 ± 446 mg
- Maximum diameter of visible tumor nodules [1, 7]: 5.3±5.1 mm
- Number of visible tumor nodules [1, 7]: 3.6±2.5
- Body weight [1, 8]: 20.8 ± 2.7 g
- CD31-positive area [1, 8]: 3.68 ± 1.37%
- Liver weight [1, 8]: 1817 ± 446 mg
- Maximum diameter of visible tumor nodules [1, 8]: 5.3 ± 5.1 mm
- Number of visible tumor nodules [1, 8]: 3.6 ± 2.5
- Mice with GS-positive nodules ([1]; CVC-high, week 18): seven out of seven
- Mice with HCC lesions (HE staining) ([1]; CVC-high, week 18): six out of seven
- Mice that died before sacrifice (survival analysis) ([1]; CVC-high): Five out of twelve
- Body weight ([1]; CVC-low 20 mg/kg/day, week 18): 22.9 ± 3.5 g
- CD31-positive area ([1]; CVC-low 20 mg/kg/day, week 18): 1.47±1.10%
- Liver weight ([1]; CVC-low 20 mg/kg/day, week 18): 1837 ± 410 mg
- Maximum diameter of visible tumor nodules ([1]; CVC-low 20 mg/kg/day, week 18): 4.8±5.4 mm
- Number of visible tumor nodules ([1]; CVC-low 20 mg/kg/day, week 18): 1.5±1.9
- Body weight [1, 9]: 22.9 ± 3.5 g
- CD31-positive area [1, 9]: 1.47 ± 1.10%
- Liver weight [1, 9]: 1837 ± 410 mg
- Maximum diameter of visible tumor nodules [1, 9]: 4.8 ± 5.4 mm
- Number of visible tumor nodules [1, 9]: 1.5 ± 1.9
- Mice with GS-positive nodules ([1]; CVC-low, week 18): five out of six
- Mice with HCC lesions (HE staining) ([1]; CVC-low, week 18): five out of six
- Mice that died before sacrifice (survival analysis) ([1]; CVC-low): Six out of twelve
- Reduction of Ly6C+ monocyte-derived macrophages in liver ([2]; CC14 and APAP models): 83-84%
- Pro-inflammatory Ly6C+ monocytes in blood ([2]; CC14 and APAP models, p<0.01): significantly reduced
- Reduction in ALT ([2]; CVC 100 mg/kg oral): 75%
- Reduction in necrotic area fraction ([2]; CVC 100 mg/kg oral): 61%
- Ly6C+ monocyte-derived macrophages in liver (% of liver leukocytes) ([2]; CVC 100 mg/kg oral, 12h after APAP, vehicle 6.01%±0.66): 0.95%±0.11
- Necrotic area fraction ([2]; CVC 100 mg/kg oral, vehicle 27.9%±4.05): 10.9%±3.50
- Monocyte accumulation in APAP-injured livers ([2]; WT mice): significantly reducing monocyte accumulation
- Protection from liver damage (ALT levels) ([2]; WT mice, p<0.05 for mNOX, p<0.01 for CVC): significant protection from liver damage
- Emax ([3]; Human immunodeficiency virus 1, 25 mg): 54.9%
- Emax ([3]; Human immunodeficiency virus 1, 50 mg): 79.8%
- Emax ([3]; Human immunodeficiency virus 1, 75 mg): 85.9%
- Emax ([3]; Human immunodeficiency virus 1, 150 mg): 95.9%
- Emax in the PK/PD model (HIV-1 RNA) ([3]; in vivo): −1.43 log10 copies/mL
- Inhibition of ligand binding to CCR4 [4]: only weakly inhibited
- Concentration at which saturation of monocyte CCR2 was reached [5]: 6 nM
- Concentration required to reach >80% CCR2 receptor occupancy (average) [5]: 1.8 nM
- receptor occupancy at 0.006 µM ([5]; at 6 nM): ~98%
- CCR2 cell-surface expression ([5]; in the absence of MCP-1): induced CCR2 internalization and decreased cell-surface expression on monocytes
- p24 antigen level in culture fluids ([6]; baseline 506 ng/ml): 192 ng/mL
- Viral RNA in culture fluids ([6]; baseline 1.19×10^10): 1.26×10^10 copies/ml

Source: US20180110754A1, “CENICRIVIROC FOR THE TREATMENT OF FIBROSIS” (Tobira Therapeutics, Inc., priority 2015, published 2018)
